Data: patent US7781183B2 (priority 2003, dated 2010)
Entries after “also recorded” stand apart in the source; their conditions may differ.

Biological target: anthrax lethal factor protease (Bacillus anthracis, UniProt P15917)
Test: biochemical
Format: biochemical

Chain of anthrax lethal factor protease (P15917 34-809 limits assumed): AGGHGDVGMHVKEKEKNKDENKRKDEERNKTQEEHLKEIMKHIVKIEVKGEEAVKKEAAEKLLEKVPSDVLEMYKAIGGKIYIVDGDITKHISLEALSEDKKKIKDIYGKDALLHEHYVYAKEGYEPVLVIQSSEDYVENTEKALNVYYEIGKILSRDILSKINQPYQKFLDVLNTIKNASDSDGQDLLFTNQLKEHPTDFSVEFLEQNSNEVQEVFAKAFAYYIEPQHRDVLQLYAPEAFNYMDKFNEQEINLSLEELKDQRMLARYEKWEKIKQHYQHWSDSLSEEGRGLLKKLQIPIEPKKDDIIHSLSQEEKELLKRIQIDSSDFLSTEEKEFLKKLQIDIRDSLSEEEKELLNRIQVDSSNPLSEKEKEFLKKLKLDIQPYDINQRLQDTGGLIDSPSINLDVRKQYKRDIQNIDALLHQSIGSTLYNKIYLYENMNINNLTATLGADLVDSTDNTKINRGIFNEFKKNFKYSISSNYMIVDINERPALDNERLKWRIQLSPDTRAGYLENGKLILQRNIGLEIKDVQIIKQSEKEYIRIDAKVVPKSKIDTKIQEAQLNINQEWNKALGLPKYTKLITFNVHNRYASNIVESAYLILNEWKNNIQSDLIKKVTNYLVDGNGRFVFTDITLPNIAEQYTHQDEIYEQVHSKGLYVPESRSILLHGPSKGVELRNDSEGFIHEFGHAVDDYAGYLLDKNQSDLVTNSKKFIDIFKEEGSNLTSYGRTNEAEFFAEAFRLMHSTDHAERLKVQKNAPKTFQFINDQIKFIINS

Q: With `Cc1cc(N)c2cc(NC(=O)Nc3ccc4nc(C)cc(N)c4c3)ccc2n1` [NSC 12155] as the molecule, how does the Inhibition type read?
A: competitive inhibition

Q: And the Ki?
A: 0.5 µM

Q: What about the “Km(app) with inhibitor concentration” value of the same molecule?
A: increased

Q: What about the “effect on the Vmax” value of the same molecule?
A: no effect

Q: What about the inhibition at 20 µM of the same molecule?
A: 95%

Q: And the “inhibition of LF activity (in words)” value?
A: strong inhibition

Q: How did the “Percent Inhibition” value turn out when `N=C(N)c1ccc(Oc2ccc(-c3cc4ccc(C(=N)N)cc4[nH]3)cc2)cc1` [NSC 240898] was run?
A: 72

Q: How did the “Percent Inhibition” value turn out when `N=C(N)c1ccc2[nH]c(/C=C/c3cc4cc(C(=N)N)ccc4o3)cc2c1` [NSC 290107] was run?
A: 85

Q: `N=C(N)c1ccc2cc(/C=C/c3cc4ccc(C(=N)N)cc4o3)[nH]c2c1` [NSC 294200] was tested. Which “Percent Inhibition” value did it give?
A: 92

Q: Which “Percent Inhibition” value does the source give for `C(=C\c1cc2ccc(C3=NCCN3)cc2o1)/c1cc2cc(C3=NCCN3)ccc2[nH]1` [NSC 294201] here?
A: 88

Q: `N=C(N)c1ccc2[nH]c(/C=C/c3cc4ccc(C(=N)N)cc4o3)cc2c1` [NSC 294203] was tested. Which “Percent Inhibition” value did it give?
A: 92

Q: `C(=C\c1cc2ccc(C3=NCCN3)cc2o1)/c1cc2cc(C3=NCCN3)ccc2[nH]1` [NSC 294204] was tested. Which “Percent Inhibition” value did it give?
A: 84

Q: With `O=C(Nc1ccc(C2=NCCN2)cc1)c1cc2ccc(C3=NCCN3)cc2[nH]1` [NSC 294206] as the molecule, how does the “Percent Inhibition” value read?
A: 56

Q: Which “Percent Inhibition” value does the source give for `C(=C\c1cc2ccc(C3=NCCN3)cc2o1)/c1cc2ccc(C3=NCCN3)cc2o1` [NSC 294494] here?
A: 29

Q: `N=C(N)c1ccc(-c2[nH]c3cc(C(=N)N)ccc3c2N)cc1` [NSC 300509] was tested. Which “Percent Inhibition” value did it give?
A: 46

Q: How did the “Percent Inhibition” value turn out when `C/C(=C\c1ccc(/C=C/c2cc3ccc(C4=NCCN4)cc3[nH]2)[nH]1)C1=NCCN1` [NSC 317880] was run?
A: 93

Q: Which “Percent Inhibition” value does the source give for `c1cc2cc(-c3ccc(-c4cc5ccc(C6=NCCN6)cc5[nH]4)cc3)[nH]c2cc1C1=NCCN1` [NSC 317881] here?
A: 97

Q: `N=C(N)c1ccc(/C=C/c2cc3cc(C(=N)N)ccc3[nH]2)cc1` [NSC 317884] was tested. Which “Percent Inhibition” value did it give?
A: 95

Q: With `N=C(N)c1ccc(/C=C/c2cc3ccc(C(=N)N)cc3[nH]2)cc1` [NSC 317886] as the molecule, how does the “Percent Inhibition” value read?
A: 93

Q: `N=C(N)N/N=C/c1ccc(-c2cc3ccc(/C=N/NC(=N)N)cc3s2)cc1` [NSC 341909] was tested. Which “Percent Inhibition” value did it give?
A: 90

Q: With `c1cc(-c2[nH]c3cc(C4=NCCN4)ccc3c2-c2cc3ccc(C4=NCCN4)cc3[nH]2)ccc1C1=NCCN1` [NSC 341911] as the molecule, how does the “Percent Inhibition” value read?
A: 64

Q: For `CCOc1ccc2c(N)c3ccc(/N=N/c4ccc(N)nc4N)cc3nc2c1` [NSC 354961], which “Percent Inhibition” value is on record?
A: 95

Q: `Nc1ccc(/N=N/c2ccc3cc4ccc(/N=N/c5ccc(N)nc5N)cc4nc3c2)c(N)n1` [NSC 354962] was tested. Which “Percent Inhibition” value did it give?
A: 40

Q: How did the Inhibition type turn out when `Nc1c(/C=C/c2cc3cc(C4=NCCN4)ccc3o2)[nH]c2cc(C3=NCCN3)ccc12` [NSC 357756] was run?
A: competitive inhibition

Q: What about the Ki of the same molecule?
A: 4.9 ± 1.7 µM

Q: And the “Km(app) with inhibitor concentration” value?
A: increased

Q: And the “effect on the Vmax” value?
A: no effect

Q: What about the inhibition at 20 µM of the same molecule?
A: 90%

Q: Which inhibition at 20 µM does the source give for `N=C(N)c1ccc(N=Nc2cc(N=Nc3ccc(C(=N)N)cc3)c(O)cc2O)cc1` [NSC 359465] here?
A: 48%

Q: Which inhibition at 20 µM does the source give for `c1cc2cc(-c3ccc4cc(-c5ccc6oc(C7=NCCN7)cc6c5)[nH]c4c3)[nH]c2cc1C1=NCCN1` [NSC 369718] here?
A: 90%

Q: What does the source list for `c1cc(-c2nc3cc(-c4nc5cc(C6=NCCN6)ccc5[nH]4)ccc3[nH]2)ccc1C1=NCCN1` [NSC 369721]?
A: Inhibition type: competitive inhibition; Ki: 4.2 ± 0.21 µM; Km(app) with inhibitor concentration: increased; effect on the Vmax: no effect; inhibition at 20 µM: 90%

Q: Which inhibition at 20 µM does the source give for `c1cc(C2=NCCN2)ccc1Nc1ccc(-c2cc3ccc(C4=NCCN4)cc3[nH]2)cc1` [NSC 377362] here?
A: 33%

System: J774A.1 cells
Test: not given
Format: cell-based

Q: For `Cc1cc(N)c2cc(NC(=O)Nc3ccc4nc(C)cc(N)c4c3)ccc2n1` [NSC 12155], which “protection (in words)” value is on record?
A: lower protection; also recorded: some protection

Q: What does the source list for `Nc1c(/C=C/c2cc3cc(C4=NCCN4)ccc3o2)[nH]c2cc(C3=NCCN3)ccc12` [NSC 357756]?
A: protection: about 96%; protection (in words): some protection

Q: How did the “protection (in words)” value turn out when `c1cc2cc(-c3ccc4cc(-c5ccc6oc(C7=NCCN7)cc6c5)[nH]c4c3)[nH]c2cc1C1=NCCN1` [NSC 369718] was run?
A: lower protection; also recorded: some protection

Q: With `c1cc(-c2nc3cc(-c4nc5cc(C6=NCCN6)ccc5[nH]4)ccc3[nH]2)ccc1C1=NCCN1` [NSC 369721] as the molecule, how does the “protection (in words)” value read?
A: ineffective
